Reference: paper PMC4917951, “Designing, construction and characterization of genetically encoded FRET-based nanosensor for real time monitoring of lysine flux in living cells” (Journal of Nanobiotechnology, 2016)

What was measured:
[1] = test system: E. coli BL21 (DE3) cells expressing FLIPK; assay: In vivo FRET measurement in FLIPK-expressing bacterial cell suspension; format: cell-based; settings: for change in FRET ratio of bacterial cell suspension (in vivo specificity): incubation with amino acids for 45 min
Method: In vivo analysis was performed by following the earlier protocols. […] Cultures were incubated in Luria Bertoni broth in baffled Erlenmeyer flasks for 48 h in the dark at 20 °C temperature in shaker incubator and then stored at 4 °C for overnight to ensure the proper folding of the fluorescent proteins. Then starved of nitrogen in M9 medium at 37 °C for 2 h and adjusted to OD600 3.5 and kept in 20 mM PBS buffer solution at pH 7.5. Then 180 µl of cells were dispended in the wells of microplate. 20 μl of 10 mM lysine in nitrogen starved medium grown cells were added and the fluorophores emissions were recorded for 45 min. For monitoring the accumulation rates, the injection module of microplate reader was used. Similar procedure was followed with other amino acids (arginine, ornithine, histidine) to see the specificity of FLIPK.

[2] = target: T1, FLIPK sensor protein (CFP-LAO-YFP) (Salmonella typhimurium, UniProt P02911); assay: In vitro ligand specificity of FLIPK (FRET ratio with amino acids); format: binding, Salmonella enterica serovar typhimurium LT2; settings: amino acids at 1 and 10 mM, purified FLIPK
T1 construct: The first 22 amino acids (signal peptides) were removed by the help of a SignalP 4.1 server; (His)6 tag (from pRSET-B) (N); made in house; host or cells: E. coli BL21 (DE3), pRSET-B vector
Method: (§1) Specificity of the sensor protein was measured by using five amino acids, arginine, leucine, lysine, ornithine and histidine at three different concentrations i.e. 0, 1.0 and 10 mM, each. FRET measurement was carried out by using a microplate reader. The excitation filter/slit used was 430 nm/20 nm and emission filters/slits for CFP and YFP were 485 nm/20 nm and 535 nm/25 nm, respectively. 180 µl of diluted sensor protein and 20 µl of substrate were taken in different well. Affinity of sensor protein was monitored by using different concentrations of lysine. All analysis was performed in 20 mM PBS buffer (pH 7.5).

FLIPK-306µ = target: T2, FLIPK-306µ (Salmonella enterica, UniProt P02911, R99L); assay: In vitro FRET titration of purified CFP-LAO-YFP sensor with lysine in 20 mM PBS buffer pH 7.5, YFP/CFP (535/485 nm) emission ratio in a microplate reader, fitted to a simple binding isotherm.; settings: n = 3
T2 construct: gene argT; LAO without first 22 residues (signal peptide), CFP at N-terminus and YFP at C-terminus, N-terminal (His)6 tag, pRSET-B
T2 sequence (P02911 23-260 R99L): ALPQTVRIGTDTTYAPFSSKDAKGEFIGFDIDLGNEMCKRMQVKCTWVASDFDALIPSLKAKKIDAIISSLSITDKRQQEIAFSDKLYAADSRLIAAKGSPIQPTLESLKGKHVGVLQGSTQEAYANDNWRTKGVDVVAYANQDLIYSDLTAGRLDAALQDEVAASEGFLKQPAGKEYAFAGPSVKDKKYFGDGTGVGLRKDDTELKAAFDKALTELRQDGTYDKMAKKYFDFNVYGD
Method: as §1
(§2) To determine the Kd of the FLIPK sensors, sensor protein was mixed with different concentrations of lysine in 20 mM PBS buffer (pH 7.5) and YFP/CFP ratio was recorded. By using the ratio change on ligand binding, binding constants (Kd) were determined by fitting ligand titration curve in a simple binding isotherm: S=(r-rapo)/(rsat-rapo)=L/Kd+L , where S is saturation; [L] is ligand concentration; r is ratio; rapo is ratio in the absence of ligand and rsat is ratio at saturation with ligand. All analyses were carried out with three independent protein preparations. FRET was used to characterize the sensor protein with various parameters. The FRET ratio was determined as fluorescence intensity at 535 nm (YFP) divided by fluorescence intensity at 485 nm (CFP).

FLIPK-14 µ = target: T3, FLIPK-14 µ (Salmonella enterica, UniProt P02911, F74A); assay: as above; settings: n = 3
T3 construct: gene argT; LAO without first 22 residues (signal peptide), CFP at N-terminus and YFP at C-terminus, N-terminal (His)6 tag, pRSET-B
T3 sequence (P02911 23-260 F74A): T2 sequence (P02911 23-260 R99L)
Method: as §1, §2

FLIPK-30µ = target: T4, FLIPK-30µ (Salmonella enterica, UniProt P02911, S94A); assay: as above; settings: n = 3
T4 construct: gene argT; LAO without first 22 residues (signal peptide), CFP at N-terminus and YFP at C-terminus, N-terminal (His)6 tag, pRSET-B
T4 sequence (P02911 23-260 S94A): T2 sequence (P02911 23-260 R99L)
Method: as §1, §2

FLIPK-2 m = target: T5, FLIPK-2 m (Salmonella enterica, UniProt P02911, D183I); assay: as above; settings: n = 3
T5 construct: gene argT; LAO without first 22 residues (signal peptide), CFP at N-terminus and YFP at C-terminus, N-terminal (His)6 tag, pRSET-B
T5 sequence (P02911 23-260 D183I): T2 sequence (P02911 23-260 R99L)
Method: as §1, §2

FLIPK-142µ = target: T6, FLIPK-142µ (Salmonella enterica, UniProt P02911, Y36A); assay: as above; settings: n = 3
T6 construct: gene argT; LAO without first 22 residues (signal peptide), CFP at N-terminus and YFP at C-terminus, N-terminal (His)6 tag, pRSET-B
T6 sequence (P02911 23-260 Y36A): T2 sequence (P02911 23-260 R99L)
Method: as §1, §2

FLIPK-97µ (FLIPK, WT) = target: T7, FLIPK-97µ (FLIPK, WT) (Salmonella enterica, UniProt P02911); assay: as above; settings: n = 3
T7 construct: gene argT; LAO without first 22 residues (signal peptide), CFP at N-terminus and YFP at C-terminus, N-terminal (His)6 tag, pRSET-B
Method: as §1, §2

[3] = test system: S. cerevisiae/URA3 strain BY4742 expressing FLIPK; assay: Confocal FRET imaging of lysine uptake in FLIPK-expressing yeast cells; format: cell-based
Method: For expression of FLIPK, S. cerevisiae/URA3 strain BY4742 was used as the eukaryotic host system. The yeast cells were grown and transformed by pYES-DEST-CFP-LAO-YFP vector in which the expression of CFP-LAO-YFP gene was controlled by GAL1 promoter. The transformed yeast cells were grown for 3–5 days in Synthetic Defined (SD)-growth and 1 % galactose as inducer. Imaging of expressed yeast cells were performed on confocal microscope (Leica DMRE) equipped with a confocal head TCS-SPE (Leica, Wetzlar, Germany). The yeast cells were fixed on glass slides by using medical adhesive rinsed with the growth medium and covered by a cover slip. To measure the lysine in yeast cells, dual emission intensity ratio was recorded by using LAS-AF software (Leica, Wetzlar, Germany) with 436 nm/20 nm excitation, two emission filters i.e. 480 nm/40 nm for CFP and 535/30 nm for YFP. For recording the data, FRET sensitized emission tool without background subtraction of the Leica confocal software. The data was further processed by using Adobe Photoshop. Images of single cell and multiple cells were captured by selecting the region of interest (ROI). Similar procedure was followed for the imaging of expressed bacterial cells.

[4] = target: lysine binding periplasmic protein (LAO); design: method as in PMID 1400387; settings: read-out: Kd for lysine by equilibrium dialysis; cited from earlier work

Compound: N=C(N)NCCC[C@H](N)C(=O)O [arginine]
- change in FRET ratio of bacterial cell suspension (in vivo specificity) [1]: did not change the FRET ratio
- change in FRET ratio of FLIPK (ligand specificity) [2]: non-significant change in FRET ratio

Compound: N[C@@H](Cc1c[nH]cn1)C(=O)O [histidine]
- change in FRET ratio of bacterial cell suspension (in vivo specificity) [1]: did not change the FRET ratio
- change in FRET ratio of FLIPK (ligand specificity) [2]: non-significant change in FRET ratio

Compound: CC(C)C[C@H](N)C(=O)O [leucine]
- change in FRET ratio of FLIPK (ligand specificity) [2]: non-significant change in FRET ratio

Compound: NCCCC[C@H](N)C(=O)O [lysine, L-lysine]
- Kd (FLIPK-306µ): 306 µM
- Kd (FLIPK-14 µ): 14 µM
- Kd (FLIPK-30µ): 30 µM
- Kd (FLIPK-2 m): 2000 µM
- Kd (FLIPK-142µ): 142 µM
- Kd (FLIPK-97µ (FLIPK, WT)): 97 µM

Compound: NCCCC[C@H](N)C(=O)O [lysine]
- time after which FRET ratio increased distinctly ([1]; 10 mM lysine added externally): 5 min
- time at which FRET ratio of the cell suspensions saturated ([1]; 10 mM lysine added externally, 20 mM PBS buffer): 45 min
- time within which uptake of lysine saturated ([1]; at 10 mM): 40 to 45 min
- change in FRET ratio of bacterial cell suspension (in vivo specificity) [1]: major change
- increase of 535 nm/485 nm emission intensity ratio ([3]; 100 mM extracellular lysine, single yeast cell): 2.0
- time up to which 535 nm/485 nm ratio increased before saturation ([3]; after addition of lysine): 255 s
- Kd [4]: 0.015 µM
- change in FRET ratio of FLIPK (ligand specificity) [2]: significant increase in the FRET ratio

Compound: NCCC[C@H](N)C(=O)O [ornithine]
- change in FRET ratio of bacterial cell suspension (in vivo specificity) [1]: did not change the FRET ratio
- change in FRET ratio of FLIPK (ligand specificity) [2]: non-significant change in FRET ratio
